Experimental data from article PMC8610590 (Journal of Virology, 2021).

How the values were obtained:
[1] = system: SARS-CoV-2 Scotland variant (linage: B.1.222); experiment: microbe, parasite or virus in culture; assay type: cell-based; settings: Severe acute respiratory syndrome coronavirus 2, Calu-3, read-out: IC50, inhibition of SARS-CoV-2 replication
[2] = system: SARS-CoV-2 South African variant (linage: B.1.351); experiment: microbe, parasite or virus in culture; assay type: cell-based; settings: Severe acute respiratory syndrome coronavirus 2, Calu-3, read-out: IC50, inhibition of SARS-CoV-2 replication

Row | Compound | IC50 [1] | IC50 [2]
1 | CN1C(=O)c2ccccc2[S+]([O-])c2cc([N+](=O)[O-])ccc2S1(=O)=O (stereo not shown) [MU-UNMC-1, 6-methyl-2-nitrodibenzo[d,g][1,6,2]dithiazocin-7(6H)-one 5,5,12-trioxide] | 2640 nM | 9270 nM
2 | O=C1Nc2cc(C(F)(F)F)ccc2Oc2ccsc21 [MU-UNMC-2, 7-(trifluoromethyl) benzo[b]thieno[2,3-f][1,4]oxazepin-10(9H)-one] | 1390 nM | 3000 nM
